According to US11142504B2, “Substituted heterocycles as c-MYC targeting agents” (Northwestern University, priority 2016, dated 2021):

System: MycCap cells
Assay: Cell viability of MycCap cells
Format: cell-based
Conditions: Mus musculus, Myc-CaP

Compound | IC50 [µM]
CCc1ccc(Oc2c(-c3ccc(OCCc4cccc(C(F)(F)F)c4)cc3O)n[nH]c2C(F)(F)F)cc1 [NUCC-0176245] | 4.1
COc1ccc(-c2c(-c3ccc(OCc4ccc(Cl)cc4)cc3O)n[nH]c2C(F)(F)F)cc1OC [NUCC-0196283] | 2.3
CCc1ccc(Oc2c(-c3ccc(OCc4cccc(Cl)c4)cc3O)n[nH]c2C(F)(F)F)cc1 [NUCC-0196295] | 12.2
COc1ccc(-c2c(-c3ccc(OCc4ccc(Cl)cc4)cc3O)n[nH]c2C(F)(F)F)cc1 [NUCC-0196312] | 4.8
Oc1cc(OCc2ccc(Cl)cc2)ccc1-c1cc(C(F)(F)F)[nH]n1 [NUCC-0196313] | 4.2
Cc1ccc(-c2c(OCc3ccc(Cl)cc3)ccc(-c3cc(C(F)(F)F)[nH]n3)c2O)cc1 [NUCC-0196344] | 6.6
Cn1nc(-c2ccc(OCc3ccc(Cl)cc3)c(-c3ccc(F)cc3)c2O)cc1C(F)(F)F [NUCC-0196348] | 110
Oc1cc(OCc2ccc(Cl)cc2)ccc1-c1n[nH]cc1-c1cccc(Cl)c1 [NUCC-0196350] | 4.3
CCc1ccc(Oc2c(-c3ccc(OCc4ccc(Cl)c(Cl)c4)cc3O)n[nH]c2C(F)(F)F)cc1 [NUCC-0196355] | 11.8
CCc1ccc(Oc2c(-c3ccc(OCCc4ccc(Cl)cc4)cc3O)n[nH]c2C(F)(F)F)cc1 [NUCC-0196357] | 6.9
Cn1nc(-c2ccc(OCc3ccc(Cl)cc3)c(-c3cc(C(F)(F)F)cc(C(F)(F)F)c3)c2O)cc1C(F)(F)F [NUCC-0196360] | 39.6
Oc1cc(OCc2ccc(Cl)cc2)ccc1-c1n[nH]cc1-c1cc(C(F)(F)F)cc(C(F)(F)F)c1 [NUCC-0198318] | 4.3
Oc1cc(OCc2ccc(Cl)cc2)ccc1-c1n[nH]cc1-c1ccoc1 [NUCC-0198322] | 6.5
Cc1cc(C)c(-c2c[nH]nc2-c2ccc(OCc3ccc(Cl)cc3)cc2O)c(C)c1 [NUCC-0198359] | 7.6
N#Cc1ccc(-c2c(OCc3ccc(Cl)cc3)ccc(-c3cc(C(F)(F)F)[nH]n3)c2O)cc1 [NUCC-0198391] | 3.4
NC(=O)c1ccc(-c2c(OCc3ccc(Cl)cc3)ccc(-c3cc(C(F)(F)F)[nH]n3)c2O)cc1 [NUCC-0198394] | 7.3
N#Cc1cccc(-c2c(OCc3ccc(Cl)cc3)ccc(-c3cc(C(F)(F)F)[nH]n3)c2O)c1 [NUCC-0198398] | 4.3
CCc1ccc(Oc2c(-c3ccc(O)cc3O)n[nH]c2C(F)(F)F)cc1 [NUCC-0198406] | 17.5
Cn1nc(C(F)(F)F)cc1-c1ccc(OCc2ccc(Cl)cc2)c(Br)c1O [NUCC-0198407] | 7.8
Cn1nc(C(F)(F)F)cc1-c1ccc(OCc2ccc(Cl)cc2)c(-c2cccc(C(F)(F)F)c2)c1O [NUCC-0200974] | 10.2
CCOc1ncc(C(F)(F)F)cc1-c1c(OCc2ccc(Cl)cc2)ccc(-c2cc(C(F)(F)F)n[nH]2)c1O [NUCC-0201039] | 13.6
O=C1CCC(N2C(=O)c3cccc(OCc4cn(CCOCCOCCOCCOCC(=O)Nc5ccc(COc6ccc(-c7cc(C(F)(F)F)n[nH]7)c(O)c6-c6cc(C(F)(F)F)cc(C(F)(F)F)c6)cc5)nn4)c3C2=O)C(=O)N1 (stereo not drawn) [NUCC-0201203] | 32.4
CCCCOc1ccc(-c2cc(C(F)(F)F)nn2C)c(O)c1-c1cncc(C(F)(F)F)c1 [NUCC-0201204] | 23
CC(C)CCOc1ccc(-c2cc(C(F)(F)F)nn2C)c(O)c1-c1cncc(C(F)(F)F)c1 [NUCC-0201206] | 5
C#CCOc1ccc(COc2ccc(-c3cc(C(F)(F)F)n[nH]3)c(O)c2-c2cc(C(F)(F)F)cc(C(F)(F)F)c2)cc1 [NUCC-0201219] | 9.5
COc1ccc(-c2cc(C(F)(F)F)n(C)n2)c(O)c1-c1cc(C(F)(F)F)cc(C(F)(F)F)c1 [NUCC-0201221] | 1.2
C#CCC(N=[N+]=[N-])C(=O)Nc1ccc(COc2ccc(-c3cc(C(F)(F)F)n(C)n3)c(O)c2-c2cncc(C(F)(F)F)c2)cc1 (stereo not drawn) [NUCC-0201699] | 24.3
